Measured values from patent US20230265151A1, “GIP/GLP1 CO-AGONIST COMPOUNDS” (priority 2020, published 2023).

Legend:
Type in all cases: cell-based
hGIPR = molecular target: T1, hGIPR (Homo sapiens, UniProt P48546); test: Functional cAMP formation (HTRF) in HEK-293 clonal cells expressing hGIPR, 0.1% bovine casein, without or with 1.0% human serum albumin; conditions: for Emax: HEK293, read-out: hGIPR Emax, % ± SEM, percent of maximal response to GIP(1-42)NH2, 37° C., 0.1% bovine casein, arithmetic mean; for EC50: hGIPR EC50, nM (SEM, n), cAMP, incubated at 37° C., 0.1% bovine casein (no human serum albumin), geometric mean
T1 construct: expressed in transfected cells
T1 sequence (P48546 22-466): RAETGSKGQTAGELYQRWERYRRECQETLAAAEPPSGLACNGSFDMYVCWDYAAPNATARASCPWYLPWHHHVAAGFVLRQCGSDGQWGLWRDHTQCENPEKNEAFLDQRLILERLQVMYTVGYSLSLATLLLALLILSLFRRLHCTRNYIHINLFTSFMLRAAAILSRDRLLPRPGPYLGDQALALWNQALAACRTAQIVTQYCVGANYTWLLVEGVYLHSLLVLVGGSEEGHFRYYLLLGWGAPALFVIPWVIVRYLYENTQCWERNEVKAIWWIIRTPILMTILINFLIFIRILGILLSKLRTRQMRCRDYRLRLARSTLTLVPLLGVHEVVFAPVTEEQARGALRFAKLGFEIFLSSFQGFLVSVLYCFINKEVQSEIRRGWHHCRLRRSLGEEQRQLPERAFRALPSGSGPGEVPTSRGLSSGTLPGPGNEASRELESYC
Procedure, shortened: (§1)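 Readings of the HTRF 665/620 nm ratio, which falls as cAMP rises, were converted to nM cAMP using a standard curve after 30 min peptide exposure at 37° C.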

hGCGR = molecular target: T2, hGCGR (Homo sapiens, UniProt P47871); test: Functional cAMP formation (HTRF) in HEK-293 clonal cells expressing hGCGR, 0.1% bovine casein, without or with 1.0% human serum albumin; conditions: hGCGR EC50, nM (SEM, n), cAMP, incubated at 37° C., 0.1% bovine casein (no human serum albumin); geometric mean
T2 construct: expressed in transfected cells
T2 sequence (P47871 26-477): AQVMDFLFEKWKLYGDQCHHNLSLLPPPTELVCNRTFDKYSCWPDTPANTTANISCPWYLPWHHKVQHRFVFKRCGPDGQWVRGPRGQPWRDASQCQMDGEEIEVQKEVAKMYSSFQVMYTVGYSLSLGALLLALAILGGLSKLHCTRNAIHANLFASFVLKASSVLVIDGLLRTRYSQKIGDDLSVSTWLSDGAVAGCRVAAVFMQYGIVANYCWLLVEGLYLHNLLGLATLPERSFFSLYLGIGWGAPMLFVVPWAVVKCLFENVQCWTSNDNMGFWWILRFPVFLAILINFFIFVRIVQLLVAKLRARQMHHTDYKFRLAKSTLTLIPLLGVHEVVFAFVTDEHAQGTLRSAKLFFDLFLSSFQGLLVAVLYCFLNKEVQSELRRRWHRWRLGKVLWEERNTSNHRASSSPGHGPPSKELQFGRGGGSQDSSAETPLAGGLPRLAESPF
Procedure, shortened: as §1

hGLP-1R = hGLP-1R (Homo sapiens, UniProt P43220); test: Functional cAMP formation (HTRF) in HEK-293 clonal cells expressing hGLP-1R, 0.1% bovine casein, without or with 1.0% human serum albumin; design: expressed in transfected cells; conditions: for Emax: HEK293, read-out: hGLP-1R Emax, % ± SEM, percent of maximal response to GLP-1(7-36)NH2, 37° C., 0.1% bovine casein, arithmetic mean; for EC50: hGLP-1R EC50, nM (SEM, n), cAMP, incubated at 37° C., 0.1% bovine casein (no human serum albumin), geometric mean
Chain of hGLP-1R (P43220 24-463): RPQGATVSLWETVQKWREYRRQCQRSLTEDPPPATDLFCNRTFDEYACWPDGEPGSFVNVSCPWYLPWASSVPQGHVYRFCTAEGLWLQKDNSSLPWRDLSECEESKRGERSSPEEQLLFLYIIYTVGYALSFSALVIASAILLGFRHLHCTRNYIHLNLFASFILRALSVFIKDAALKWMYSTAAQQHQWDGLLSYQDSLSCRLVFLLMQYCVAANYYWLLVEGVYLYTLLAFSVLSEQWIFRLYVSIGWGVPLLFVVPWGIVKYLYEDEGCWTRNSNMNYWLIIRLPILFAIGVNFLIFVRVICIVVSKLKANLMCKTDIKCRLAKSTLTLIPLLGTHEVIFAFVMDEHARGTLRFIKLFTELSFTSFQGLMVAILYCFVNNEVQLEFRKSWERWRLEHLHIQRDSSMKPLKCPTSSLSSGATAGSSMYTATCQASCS
Procedure, shortened: as §1

Structure (SMILES) | Emax (hGIPR) | EC50 (hGCGR) | Emax (hGLP-1R) | EC50 (hGLP-1R) | EC50 (hGIPR)
CC[C@H](C)[C@H](NC(=O)[C@H](CC(C)C)NC(=O)[C@](C)(Cc1ccc(O)cc1)NC(=O)[C@H](CCCCNC(=O)COCCOCCNC(=O)COCCOCCNC(=O)CC[C@H](NC(=O)CCCCCCCCCCCCC(=O)O)C(=O)O)NC(=O)[C@@H](NC(=O)[C@H](Cc1ccccc1)NC(=O)[C@H](CCC(=O)O)NC(=O)C(C)(C)NC(=O)[C@H](CCC(N)=O)NC(=O)[C@H](C)NC(=O)[C@H](CCCCNC(=O)COCCOCCNC(=O)COCCOCCNC(=O)CC[C@H](NC(=O)CCCCCCCCCCCCC(=O)O)C(=O)O)NC(=O)[C@H](CCCN)NC(=O)[C@H](CC(=O)O)NC(=O)[C@H](CC(C)C)NC(=O)[C@](C)(CC(C)C)NC(=O)[C@@H](NC(=O)[C@H](CO)NC(=O)[C@@H](NC(=O)[C@H](CC(=O)O)NC(=O)[C@H](CO)NC(=O)[C@@H](NC(=O)[C@](C)(Cc1ccccc1F)NC(=O)[C@@H](NC(=O)CNC(=O)[C@H](CCC(=O)O)NC(=O)C(C)(C)NC(=O)[C@@H](N)Cc1ccc(O)cc1)[C@@H](C)O)[C@@H](C)O)C(C)C)[C@@H](C)CC)[C@@H](C)CC)C(=O)N[C@@H](CCC(=O)O)C(=O)NCC(=O)NCC(=O)N1CCC[C@H]1C(=O)N[C@@H](CO)C(=O)N[C@@H](CO)C(=O)NCC(=O)N[C@@H](C)C(=O)N1CCC[C@H]1C(=O)N1CCC[C@H]1C(=O)N1CCC[C@H]1C(=O)N[C@@H](CO)C(N)=O [Example 114] | 93.8% | > 9950 nM | 91.7% | 0.176 nM | –
CC[C@H](C)[C@H](NC(=O)[C@H](CC(C)C)NC(=O)[C@](C)(Cc1ccc(O)cc1)NC(=O)[C@H](CCCCNC(=O)COCCOCCNC(=O)COCCOCCNC(=O)CC[C@H](NC(=O)CCCCCCCCCCCCC(=O)O)C(=O)O)NC(=O)[C@@H](NC(=O)[C@H](Cc1ccccc1)NC(=O)[C@H](CCC(=O)O)NC(=O)C(C)(C)NC(=O)[C@H](CCC(N)=O)NC(=O)[C@H](C)NC(=O)[C@H](CCCCNC(=O)COCCOCCNC(=O)COCCOCCNC(=O)CC[C@H](NC(=O)CCCCCCCCCCCCC(=O)O)C(=O)O)NC(=O)[C@H](CCCN)NC(=O)[C@H](CC(=O)O)NC(=O)[C@H](CC(C)C)NC(=O)[C@](C)(CC(C)C)NC(=O)[C@@H](NC(=O)C(C)(C)NC(=O)[C@@H](NC(=O)[C@H](CC(=O)O)NC(=O)[C@H](CO)NC(=O)[C@@H](NC(=O)[C@](C)(Cc1ccccc1F)NC(=O)[C@@H](NC(=O)CNC(=O)[C@H](CCC(=O)O)NC(=O)C(C)(C)NC(=O)[C@@H](N)Cc1ccc(O)cc1)[C@@H](C)O)[C@@H](C)O)C(C)C)[C@@H](C)CC)[C@@H](C)CC)C(=O)N[C@@H](CCC(=O)O)C(=O)NCC(=O)NCC(=O)N1CCC[C@H]1C(=O)N[C@@H](CO)C(=O)N[C@@H](CO)C(=O)NCC(=O)N[C@@H](C)C(=O)N1CCC[C@H]1C(=O)N1CCC[C@H]1C(=O)N1CCC[C@H]1C(=O)N[C@@H](CO)C(N)=O [Example 115] | – | > 9950 nM | 91.6% | 0.16 nM | 0.103 nM
CC[C@H](C)[C@H](NC(=O)[C@H](CC(C)C)NC(=O)[C@](C)(Cc1ccc(O)cc1)NC(=O)[C@H](CCCCNC(=O)COCCOCCNC(=O)COCCOCCNC(=O)CC[C@H](NC(=O)CCCCCCCCCCCCC(=O)O)C(=O)O)NC(=O)[C@@H](NC(=O)[C@H](Cc1ccccc1)NC(=O)[C@H](CCC(=O)O)NC(=O)C(C)(C)NC(=O)[C@H](CCC(N)=O)NC(=O)[C@H](C)NC(=O)[C@H](CCCCNC(=O)COCCOCCNC(=O)COCCOCCNC(=O)CC[C@H](NC(=O)CCCCCCCCCCCCC(=O)O)C(=O)O)NC(=O)[C@H](CCCN)NC(=O)[C@H](CC(=O)O)NC(=O)[C@H](CC(C)C)NC(=O)[C@](C)(CC(C)C)NC(=O)[C@@H](NC(=O)[C@H](CO)NC(=O)C1(NC(=O)[C@H](CC(=O)O)NC(=O)[C@H](CO)NC(=O)[C@@H](NC(=O)[C@](C)(Cc2ccccc2F)NC(=O)[C@@H](NC(=O)CNC(=O)[C@H](CCC(=O)O)NC(=O)C(C)(C)NC(=O)[C@@H](N)Cc2ccc(O)cc2)[C@@H](C)O)[C@@H](C)O)CCCC1)[C@@H](C)CC)[C@@H](C)CC)C(=O)N[C@@H](CCC(=O)O)C(=O)NCC(=O)NCC(=O)N1CCC[C@H]1C(=O)N[C@@H](CO)C(=O)N[C@@H](CO)C(=O)NCC(=O)N[C@@H](C)C(=O)N1CCC[C@H]1C(=O)N1CCC[C@H]1C(=O)N1CCC[C@H]1C(=O)N[C@@H](CO)C(N)=O [Example 116] | 115% | > 9950 nM | – | 0.197 nM | –
CC[C@H](C)[C@H](NC(=O)[C@H](CC(C)C)NC(=O)[C@](C)(Cc1ccc(O)cc1)NC(=O)[C@H](CCCCNC(=O)COCCOCCNC(=O)COCCOCCNC(=O)CC[C@H](NC(=O)CCCCCCCCCCCCC(=O)O)C(=O)O)NC(=O)[C@@H](NC(=O)[C@](C)(Cc1ccccc1)NC(=O)[C@H](CCC(=O)O)NC(=O)C(C)(C)NC(=O)[C@H](CCC(N)=O)NC(=O)[C@H](C)NC(=O)[C@H](CCCCNC(=O)COCCOCCNC(=O)COCCOCCNC(=O)CC[C@H](NC(=O)CCCCCCCCCCCCC(=O)O)C(=O)O)NC(=O)[C@H](CCCN)NC(=O)[C@H](CC(=O)O)NC(=O)[C@H](CC(C)C)NC(=O)[C@](C)(CC(C)C)NC(=O)[C@@H](NC(=O)C(C)(C)NC(=O)[C@H](Cc1ccncc1)NC(=O)[C@H](CC(=O)O)NC(=O)[C@H](CO)NC(=O)[C@@H](NC(=O)[C@](C)(Cc1ccccc1F)NC(=O)[C@@H](NC(=O)CNC(=O)[C@H](CCC(=O)O)NC(=O)C(C)(C)NC(=O)[C@@H](N)Cc1ccc(O)cc1)[C@@H](C)O)[C@@H](C)O)[C@@H](C)CC)[C@@H](C)CC)C(=O)N[C@@H](CCC(=O)O)C(=O)NCC(=O)NCC(=O)N1CCC[C@H]1C(=O)N[C@@H](CO)C(=O)N[C@@H](CO)C(=O)NCC(=O)N[C@@H](C)C(=O)N1CCC[C@H]1C(=O)N1CCC[C@H]1C(=O)N1CCC[C@H]1C(=O)N[C@@H](CO)C(N)=O [Example 117] | 96.4% | > 9950 nM | 98.2% | – | –
CC[C@H](C)[C@H](NC(=O)[C@H](CC(C)C)NC(=O)[C@](C)(Cc1ccc(O)cc1)NC(=O)[C@H](CCCCNC(=O)COCCOCCNC(=O)COCCOCCNC(=O)CC[C@H](NC(=O)CCCCCCCCCCCCC(=O)O)C(=O)O)NC(=O)[C@@H](NC(=O)[C@](C)(Cc1ccccc1)NC(=O)[C@H](CCC(=O)O)NC(=O)C(C)(C)NC(=O)[C@H](CCC(N)=O)NC(=O)[C@H](C)NC(=O)[C@H](CCCCNC(=O)COCCOCCNC(=O)COCCOCCNC(=O)CC[C@H](NC(=O)CCCCCCCCCCCCC(=O)O)C(=O)O)NC(=O)[C@H](CCCN)NC(=O)[C@H](CC(=O)O)NC(=O)[C@H](CC(C)C)NC(=O)[C@](C)(CC(C)C)NC(=O)[C@@H](NC(=O)[C@H](CO)NC(=O)[C@@H](NC(=O)[C@H](CC(=O)O)NC(=O)[C@H](CO)NC(=O)[C@@H](NC(=O)[C@](C)(Cc1ccccc1F)NC(=O)[C@@H](NC(=O)CNC(=O)[C@H](CCC(=O)O)NC(=O)C(C)(C)NC(=O)[C@@H](N)Cc1ccc(O)cc1)[C@@H](C)O)[C@@H](C)O)C(C)C)[C@@H](C)CC)[C@@H](C)CC)C(=O)N[C@@H](CCC(=O)O)C(=O)NCC(=O)NCC(=O)N1CCC[C@H]1C(=O)N[C@@H](CO)C(=O)N[C@@H](CO)C(=O)NCC(=O)N[C@@H](C)C(=O)N1CCC[C@H]1C(=O)N1CCC[C@H]1C(=O)N1CCC[C@H]1C(=O)N[C@@H](CO)C(N)=O [Example 118] | 94.7% | > 9950 nM | – | 0.437 nM | 0.0547 nM
CC[C@H](C)[C@H](NC(=O)[C@H](CC(C)C)NC(=O)[C@](C)(Cc1ccc(O)cc1)NC(=O)[C@H](CCCCNC(=O)COCCOCCNC(=O)COCCOCCNC(=O)CC[C@H](NC(=O)CCCCCCCCCCCCC(=O)O)C(=O)O)NC(=O)[C@@H](NC(=O)[C@](C)(Cc1ccccc1)NC(=O)[C@H](CCC(=O)O)NC(=O)C(C)(C)NC(=O)[C@H](CCC(N)=O)NC(=O)[C@H](C)NC(=O)[C@H](CCCCNC(=O)COCCOCCNC(=O)COCCOCCNC(=O)CC[C@H](NC(=O)CCCCCCCCCCCCC(=O)O)C(=O)O)NC(=O)[C@H](CCCN)NC(=O)[C@H](CC(=O)O)NC(=O)[C@H](CC(C)C)NC(=O)[C@](C)(CC(C)C)NC(=O)[C@@H](NC(=O)C(C)(C)NC(=O)[C@@H](NC(=O)[C@H](CC(=O)O)NC(=O)[C@H](CO)NC(=O)[C@@H](NC(=O)[C@](C)(Cc1ccccc1F)NC(=O)[C@@H](NC(=O)CNC(=O)[C@H](CCC(=O)O)NC(=O)C(C)(C)NC(=O)[C@@H](N)Cc1ccc(O)cc1)[C@@H](C)O)[C@@H](C)O)C(C)C)[C@@H](C)CC)[C@@H](C)CC)C(=O)N[C@@H](CCC(=O)O)C(=O)NCC(=O)NCC(=O)N1CCC[C@H]1C(=O)N[C@@H](CO)C(=O)N[C@@H](CO)C(=O)NCC(=O)N[C@@H](C)C(=O)N1CCC[C@H]1C(=O)N1CCC[C@H]1C(=O)N1CCC[C@H]1C(=O)N[C@@H](CO)C(N)=O [Example 119] | – | > 9950 nM | 99.4% | 0.351 nM | 0.0863 nM
